This passage reports IC50 results from patent US20090036450A1, “PYRAZOLE COMPOUNDS AND USE THEREOF” (JAPAN TOBACCO, INC., priority 2006, published 2009).

For this assay, the target named is T1, human liver glycogen phosphorylase (Homo sapiens, UniProt P06737).
T1 construct: made in house; host or cells: Sf9 insect cells (suspension of disrupted cells, diluted in BES buffer, not purified)
T1 sequence (P06737 1-847): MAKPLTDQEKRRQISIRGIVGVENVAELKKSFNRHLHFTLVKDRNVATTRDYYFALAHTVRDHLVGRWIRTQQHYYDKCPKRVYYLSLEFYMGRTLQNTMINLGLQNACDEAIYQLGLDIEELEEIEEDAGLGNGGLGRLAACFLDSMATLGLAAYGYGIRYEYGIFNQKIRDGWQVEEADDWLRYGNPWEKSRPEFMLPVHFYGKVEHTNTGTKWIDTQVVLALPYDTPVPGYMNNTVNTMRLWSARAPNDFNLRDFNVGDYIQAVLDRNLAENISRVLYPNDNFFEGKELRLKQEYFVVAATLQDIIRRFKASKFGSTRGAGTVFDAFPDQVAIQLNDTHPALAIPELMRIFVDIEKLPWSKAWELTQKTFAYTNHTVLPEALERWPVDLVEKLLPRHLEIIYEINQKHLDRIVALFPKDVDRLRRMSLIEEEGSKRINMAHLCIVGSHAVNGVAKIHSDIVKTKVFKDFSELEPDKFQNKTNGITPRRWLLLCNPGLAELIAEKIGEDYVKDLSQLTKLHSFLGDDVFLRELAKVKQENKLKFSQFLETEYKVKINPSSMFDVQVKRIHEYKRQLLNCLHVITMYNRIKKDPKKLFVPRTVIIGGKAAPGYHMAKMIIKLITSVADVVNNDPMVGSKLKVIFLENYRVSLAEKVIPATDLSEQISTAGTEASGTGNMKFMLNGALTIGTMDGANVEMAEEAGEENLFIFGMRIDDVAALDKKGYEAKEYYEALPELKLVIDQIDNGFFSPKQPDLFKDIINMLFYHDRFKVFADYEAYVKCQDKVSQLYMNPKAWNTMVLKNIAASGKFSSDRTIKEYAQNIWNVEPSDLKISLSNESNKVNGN
Nature of the assay: Liver glycogen phosphorylase activity, forward reaction system (NADPH detection at 340 nm). The format is biochemical. Particulars: enzyme inhibitory activity against recombinant human liver glycogen phosphorylase (Sf9 cell lysate), room temperature, 75 minutes. On the procedure: The glycogen phosphorylase activity was determined by a method using a forward reaction system.
The following method was used to determine the glycogen phosphorylase activity using a forward reaction system. Glucose-1-phosphate generated from glycogen by glycogen phosphorylase was converted to glucono-δ-lactone-6-phosphate by transphosphorylation and dehydrogenation reactions using phosphoglucomutase and glucose-6-phosphate dehydrogenase (G6PDH). At this time, NADPH generated from NADP in the dehydrogenation reaction by G6PDH was detected.
An enzyme solution of human liver glycogen phosphorylase was obtained by diluting with 100 mmol/L BES buffer (pH 6.8, containing 2 mmol/L EDTA) a suspension disrupted Sf9 cells in which a recombinant human liver glycogen phosphorylase was forcibly expressed. Phosphate buffer (16 mmol/L KH2PO4, containing 24 mmol/L Na2HPO4) was used as a substrate solution. A mixture of 8 U/mL phosphoglucomutase and 60 U/mL G6PDH was prepared with BES buffer. A reaction buffer (1.4 mmol/L NADP, 30 mmol/L MgCl2, 8 μmol/L glucose-1,6-diphosphate, 8 mg/mL glycogen, 40 mmol/L BES, containing 0.8 mmol/L EDTA) and a glucose solution (75 mmol/L glucose and 100 mmol/L BES, containing 2 mmol/L EDTA) were prepared. A test substance was dissolved in 1% DMSO aqueous solution.
To a mixture of the glucose solution (20 μL), the substrate solution (20 μL), the reaction buffer (100 μL), and the test substance (20 μL), the recombinant human liver glycogen phosphorylase solution (20 μL), and a mixture (20 μL) of phosphoglucomutase and G6PDH were added to initiate an enzymatic reaction. To a control, 1% DMSO aqueous solution was added instead of the test substance. A solution to which the substrate was not added was used as a blank. After initiation of the reaction, absorbance at 340 nm was measured immediately. The reaction was performed at room temperature for 75 minutes, and then absorbance at 340 nm was measured again. The enzyme activity was obtained by deducting the change in absorbance of the blank for 75 minutes from the change in absorbance over 75 minutes. The inhibition rate (%) of the test substance was calculated by “(1−(enzyme activity of test substance)/(enzyme activity of control))×100”.
“IC50” represents an enzyme inhibitory activity against human liver glycogen phosphorylase.

With `COCc1nc(C)c(CNC(=O)c2cc(NC(=O)c3cc(F)c(F)cc3Cl)[nH]n2)o1` [Example 1-45, 5-(2-chloro-4,5-difluoro-benzoylamino)-1H-pyrazole-3-carboxylic acid (2-methoxymethyl-4-methyl-oxazol-5-ylmethyl)-amide], the IC50 was below 0.1 µM. As to `Cc1nc(COCC(F)(F)F)oc1CNC(=O)c1cc(NC(=O)c2cc(F)c(F)cc2Cl)[nH]n1` [Example 1-46], the IC50 is below 0.1 µM. With `Cc1nc(COCc2ccccc2)oc1CNC(=O)c1cc(NC(=O)c2cc(F)c(F)cc2Cl)[nH]n1` [Example 1-47, 5-(2-chloro-4,5-difluoro-benzoylamino)-1H-pyrazole-3-carboxylic acid (2-benzyloxymethyl-4-methyl-oxazol-5-ylmethyl)-amide], the IC50 is below 0.1 µM. Take `CCOC(=O)COCc1nc(C)c(CNC(=O)c2cc(NC(=O)c3cc(F)c(F)cc3Cl)[nH]n2)o1` [Example 1-48, 5-(2-chloro-4,5-difluoro-benzoylamino)-1H-pyrazole-3-carboxylic acid (2-ethoxycarbonylmethoxymethyl-4-methyl-oxazol-5-ylmethyl)-amide]: the IC50 was below 0.1 µM.

For `Cc1nc(Sc2ccccc2)oc1CNC(=O)c1cc(NC(=O)c2cc(F)c(F)cc2Cl)[nH]n1` [Example 1-49, 5-(2-chloro-4,5-difluoro-benzoylamino)-1H-pyrazole-3-carboxylic acid (4-methyl-2-phenylsulfanyl-oxazol-5-ylmethyl)-amide], the concentration for half-maximal inhibition (IC50) is below 0.1 µM. As for `COC(=O)c1nc(C)c(CNC(=O)c2cc(NC(=O)c3cc(F)c(F)cc3Cl)[nH]n2)o1` [Example 1-50, 5-(2-chloro-4,5-difluoro-benzoylamino)-1H-pyrazole-3-carboxylic acid (2-methoxycarbonyl-4-methyl-oxazol-5-ylmethyl)-amide], the half-inhibitory concentration (IC50) was below 0.1 µM. Consider `CCOC(=O)c1oc(CNC(=O)c2cc(NC(=O)c3cc(F)c(F)cc3Cl)[nH]n2)nc1C` [Example 1-51, 5-(2-chloro-4,5-difluoro-benzoylamino)-1H-pyrazole-3-carboxylic acid (5-ethoxycarbonyl-4-methyl-oxazol-2-ylmethyl)-amide], for which the IC50 is below 0.1 µM. For `O=C(NCc1nnc(-c2ccc(Cl)cc2)o1)c1cc(NC(=O)c2cc(F)c(F)cc2Cl)[nH]n1` [Example 1-52, 5-(2-chloro-4,5-difluoro-benzoylamino)-1H-pyrazole-3-carboxylic acid [5-(4-chloro-phenyl)-[1,3,4]oxadiazol-2-ylmethyl]-amide], the 50% inhibitory concentration (IC50) was below 0.1 µM. For `Cc1ccccc1-c1nnc(CNC(=O)c2cc(NC(=O)c3cc(F)c(F)cc3Cl)[nH]n2)o1` [Example 1-53, 5-(2-chloro-4,5-difluoro-benzoylamino)-1H-pyrazole-3-carboxylic acid [5-(2-methyl-phenyl)-[1,3,4]oxadiazol-2-ylmethyl]-amide] the value was below 0.1 µM. In the case of `CN(C)c1ccc(-c2nnc(CNC(=O)c3cc(NC(=O)c4cc(F)c(F)cc4Cl)[nH]n3)o2)cc1` [Example 1-54, 5-(2-chloro-4,5-difluoro-benzoylamino)-1H-pyrazole-3-carboxylic acid [5-(4-dimethylamino-phenyl)-[1,3,4]oxadiazol-2-ylmethyl]-amide], the IC50 was below 0.1 µM.

On to `O=C(NCc1nnc(-c2ccc(C(F)(F)F)cc2)o1)c1cc(NC(=O)c2cc(F)c(F)cc2Cl)[nH]n1` [Example 1-55, 5-(2-chloro-4,5-difluoro-benzoylamino)-1H-pyrazole-3-carboxylic acid [5-(4-trifluoromethyl-phenyl)-[1,3,4]oxadiazol-2-ylmethyl]-amide], for which the 50% inhibitory concentration (IC50) is above 0.3 µM. Regarding `O=C(NCc1nnc(-c2cccc([N+](=O)[O-])c2)o1)c1cc(NC(=O)c2cc(F)c(F)cc2Cl)[nH]n1` [Example 1-56, 5-(2-chloro-4,5-difluoro-benzoylamino)-1H-pyrazole-3-carboxylic acid [5-(3-nitro-phenyl)-[1,3,4]oxadiazol-2-ylmethyl]-amide], the IC50 was below 0.1 µM. Turning to `O=C(NCc1nnc(-c2cccc(O)c2)o1)c1cc(NC(=O)c2cc(F)c(F)cc2Cl)[nH]n1` [Example 1-57, 5-(2-chloro-4,5-difluoro-benzoylamino)-1H-pyrazole-3-carboxylic acid [5-(3-hydroxy-phenyl)-[1,3,4]oxadiazol-2-ylmethyl]-amide], the IC50 is below 0.1 µM. On to `O=C(NCc1nnc(-c2ccccc2O)o1)c1cc(NC(=O)c2cc(F)c(F)cc2Cl)[nH]n1` [Example 1-58, 5-(2-chloro-4,5-difluoro-benzoylamino)-1H-pyrazole-3-carboxylic acid [5-(2-hydroxy-phenyl)-[1,3,4]oxadiazol-2-ylmethyl]-amide], for which the IC50 is below 0.1 µM. Then `O=C(NCc1nnc(-c2cccc(Cl)c2)o1)c1cc(NC(=O)c2cc(F)c(F)cc2Cl)[nH]n1` [Example 1-59, 5-(2-chloro-4,5-difluoro-benzoylamino)-1H-pyrazole-3-carboxylic acid [5-(3-chloro-phenyl)-[1,3,4]oxadiazol-2-ylmethyl]-amide], with below 0.1 µM; and `COc1cccc(-c2nnc(CNC(=O)c3cc(NC(=O)c4cc(F)c(F)cc4Cl)[nH]n3)o2)c1` [Example 1-60, 5-(2-chloro-4,5-difluoro-benzoylamino)-1H-pyrazole-3-carboxylic acid [5-(3-methoxy-phenyl)-[1,3,4]oxadiazol-2-ylmethyl]-amide], with below 0.1 µM. Regarding `COc1ccccc1-c1nnc(CNC(=O)c2cc(NC(=O)c3cc(F)c(F)cc3Cl)[nH]n2)o1` [Example 1-61, 5-(2-chloro-4,5-difluoro-benzoylamino)-1H-pyrazole-3-carboxylic acid [5-(2-methoxy-phenyl)-[1,3,4]oxadiazol-2-ylmethyl]-amide], the concentration for half-maximal inhibition (IC50) is below 0.1 µM. Turning to `CCOC(=O)Cc1nnc(CNC(=O)c2cc(NC(=O)c3cc(F)c(F)cc3Cl)[nH]n2)o1` [Example 1-62], the IC50 fell in the range of 0.1 to 0.3 µM. For the compound `Cc1c(CNC(=O)c2cc(NC(=O)c3cc(F)c(F)cc3Cl)[nH]n2)nnn1Cc1ccc(Cl)cc1` [Example 1-63, 5-(2-chloro-4,5-difluoro-benzoylamino)-1H-pyrazole-3-carboxylic acid [1-(4-chloro-benzyl)-5-methyl-1H-[1,2,3]triazol-4-ylmethyl]-amide], the half-inhibitory concentration (IC50) was below 0.1 µM. Consider `Cc1ccc(Cn2nnc(CNC(=O)c3cc(NC(=O)c4cc(F)c(F)cc4Cl)[nH]n3)c2C)cc1` [Example 1-64, 5-(2-chloro-4,5-difluoro-benzoylamino)-1H-pyrazole-3-carboxylic acid [5-methyl-1-(4-methyl-benzyl)-1H-[1,2,3]triazol-4-ylmethyl]-amide], for which the half-maximal inhibitory concentration (IC50) is below 0.1 µM. Regarding `Cc1nc(Cn2nnc(CNC(=O)c3cc(NC(=O)c4cc(F)c(F)cc4Cl)[nH]n3)c2C)cs1` [Example 1-65, 5-(2-chloro-4,5-difluoro-benzoylamino)-1H-pyrazole-3-carboxylic acid [5-methyl-1-(2-methyl-thiazol-4-ylmethyl)-1H-[1,2,3]triazol-4-ylmethyl]-amide], the IC50 is below 0.1 µM.

As for `Cc1cccc(-n2nc(C)c(CNC(=O)c3cc(NC(=O)c4cc(F)c(F)cc4Cl)[nH]n3)c2C)c1` [Example 1-66, 5-(2-chloro-4,5-difluoro-benzoylamino)-1H-pyrazole-3-carboxylic acid [3,5-dimethyl-1-(3-methyl-phenyl)-1H-pyrazol-4-ylmethyl]-amide], the IC50 was below 0.1 µM.

The term IC50 denotes the concentration at which inhibition is half-maximal.
